Legend:
[1] = molecular target: T1, Recombinant wild type LRRK2 protein (Homo sapiens, UniProt Q5S007); assay: LRRK2 kinase activity assay (LanthaScreen TR-FRET), wild type; type: biochemical; conditions: 400 nM LRRKtide, 25 μM ATP, 60 min at room temperature; read-out: LRRK2 WT IC50
T1 construct: purchased Life Technologies PR8604B
Description: (§1) LRRK2 kinase activity was measured using a LanthaScreen™ Kinase Activity Assay from ThermoFisher Scientific. Recombinant wild type or G2019S-LRRK2 protein (Life Technologies, PR8604B or PV4881, respectively), was incubated with a fluorescein-labeled peptide substrate called LRRKtide that is based upon ezrin/radixin/moesin (ERM) (Life Technologies, PV4901) in the presence of ATP and serially diluted compound. After an incubation period of 1 hr, the phosphotransferase activity was stopped and a terbium-labelled anti-pERM antibody (Life Technologies, PV4899) was added to detect the phosphorylation of LRRKtide by measuring the time resolved-Forster resonant energy transfer (TR-FRET) signal from the terbium label on the antibody to the fluorescein tag on LRRKtide, expressed as the 520 nm/495 nm emission ratio. Compound-dependent inhibition of the TR-FRET signal was used to generate a concentration-response curve for IC50 determination.
(§2) The assay was carried out under the following protocol conditions: 1 mM compound in DMSO was serially diluted 1:3, 11 points in DMSO with a Biomek FX and 0.1 μL of the diluted compound was subsequently stamped into the assay plate (384-well format Lumitrac 200, Greiner, 781075) with an Echo Labcyte such that the final compound concentration in the assay was 10 μM to […]. Subsequently, 5 μL of 2× kinase solution (2.9 nM final concentration) was added to the assay plate in assay buffer composed of 50 mM Tris pH 8.5 (Sigma, T6791), 5 mM MgCl2 (Fluka, 63020), 1 mM EGTA (Sigma, E3889), 0.01% BRU-35 (Sigma, P1254) and 2 mM DTT. The reaction was started by addition of 2×ATP/LRRKtide solution in assay buffer such that the final concentration was 400 nM LRRKtide and 25 μM ATP. After 60 min incubation at room temperature, the reaction was stopped by addition of […] containing a final concentration of 2 nM anti-pERM antibody and […]. After a 30 min incubation at RT, the TR-FRET signal was measured on a Wallac 2104 EnVision® multilabel reader at an excitation wavelength of 340 nm and reading emission at 520 nm and 495 nm. The ratio of the 520 nm and 495 nm emission was used to analyze the data.

[2] = molecular target: T2, Recombinant G2019S-LRRK2 protein (Homo sapiens, UniProt Q5S007, G2019S); assay: LRRK2 kinase activity assay (LanthaScreen TR-FRET), G2019S mutant; type: biochemical; conditions: 400 nM LRRKtide, 25 μM ATP, 60 min at room temperature
T2 construct: purchased Life Technologies PV4881
T2 sequence (Q5S007 970-2527 G2019S limits assumed): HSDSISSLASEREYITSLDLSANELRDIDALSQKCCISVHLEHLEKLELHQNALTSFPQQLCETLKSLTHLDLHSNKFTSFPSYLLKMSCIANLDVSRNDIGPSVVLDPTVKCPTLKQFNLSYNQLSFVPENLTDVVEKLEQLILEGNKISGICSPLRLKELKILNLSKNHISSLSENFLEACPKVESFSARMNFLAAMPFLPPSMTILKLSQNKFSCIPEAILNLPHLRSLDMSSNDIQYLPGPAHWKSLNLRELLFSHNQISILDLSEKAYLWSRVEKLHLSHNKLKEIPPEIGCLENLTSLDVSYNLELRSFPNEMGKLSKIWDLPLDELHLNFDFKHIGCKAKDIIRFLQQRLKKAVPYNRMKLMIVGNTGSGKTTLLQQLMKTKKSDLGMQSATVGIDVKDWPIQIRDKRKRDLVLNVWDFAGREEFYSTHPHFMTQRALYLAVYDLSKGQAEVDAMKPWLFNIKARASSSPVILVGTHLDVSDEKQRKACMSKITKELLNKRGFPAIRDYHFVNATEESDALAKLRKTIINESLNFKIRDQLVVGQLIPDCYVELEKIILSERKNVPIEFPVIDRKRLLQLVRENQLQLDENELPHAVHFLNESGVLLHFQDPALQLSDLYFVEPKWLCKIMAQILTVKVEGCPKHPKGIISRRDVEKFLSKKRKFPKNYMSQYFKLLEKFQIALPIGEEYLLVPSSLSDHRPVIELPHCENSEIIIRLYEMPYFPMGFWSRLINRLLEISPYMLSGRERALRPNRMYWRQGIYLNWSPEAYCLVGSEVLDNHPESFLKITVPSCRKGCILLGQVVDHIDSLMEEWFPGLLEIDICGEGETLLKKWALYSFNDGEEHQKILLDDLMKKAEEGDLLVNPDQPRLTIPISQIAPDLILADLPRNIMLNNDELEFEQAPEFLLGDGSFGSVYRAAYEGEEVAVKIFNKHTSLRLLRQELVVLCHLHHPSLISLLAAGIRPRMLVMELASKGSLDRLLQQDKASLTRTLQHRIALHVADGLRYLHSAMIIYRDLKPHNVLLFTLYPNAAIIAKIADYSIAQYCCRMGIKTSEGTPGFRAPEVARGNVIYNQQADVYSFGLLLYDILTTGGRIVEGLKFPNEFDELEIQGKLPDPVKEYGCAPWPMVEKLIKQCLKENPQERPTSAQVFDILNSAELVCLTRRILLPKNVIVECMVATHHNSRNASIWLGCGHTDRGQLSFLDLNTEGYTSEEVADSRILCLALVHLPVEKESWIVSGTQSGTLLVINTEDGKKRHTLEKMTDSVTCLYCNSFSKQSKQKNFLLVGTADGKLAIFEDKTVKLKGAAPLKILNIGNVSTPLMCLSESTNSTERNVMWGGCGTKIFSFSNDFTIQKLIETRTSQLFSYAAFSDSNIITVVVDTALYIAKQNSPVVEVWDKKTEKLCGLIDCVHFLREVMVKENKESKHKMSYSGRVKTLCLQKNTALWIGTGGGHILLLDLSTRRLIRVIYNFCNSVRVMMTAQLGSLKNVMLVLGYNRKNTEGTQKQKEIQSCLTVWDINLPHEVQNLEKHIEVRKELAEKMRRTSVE
Description: as §1, §2

T1 sequence (Q5S007 whole entry): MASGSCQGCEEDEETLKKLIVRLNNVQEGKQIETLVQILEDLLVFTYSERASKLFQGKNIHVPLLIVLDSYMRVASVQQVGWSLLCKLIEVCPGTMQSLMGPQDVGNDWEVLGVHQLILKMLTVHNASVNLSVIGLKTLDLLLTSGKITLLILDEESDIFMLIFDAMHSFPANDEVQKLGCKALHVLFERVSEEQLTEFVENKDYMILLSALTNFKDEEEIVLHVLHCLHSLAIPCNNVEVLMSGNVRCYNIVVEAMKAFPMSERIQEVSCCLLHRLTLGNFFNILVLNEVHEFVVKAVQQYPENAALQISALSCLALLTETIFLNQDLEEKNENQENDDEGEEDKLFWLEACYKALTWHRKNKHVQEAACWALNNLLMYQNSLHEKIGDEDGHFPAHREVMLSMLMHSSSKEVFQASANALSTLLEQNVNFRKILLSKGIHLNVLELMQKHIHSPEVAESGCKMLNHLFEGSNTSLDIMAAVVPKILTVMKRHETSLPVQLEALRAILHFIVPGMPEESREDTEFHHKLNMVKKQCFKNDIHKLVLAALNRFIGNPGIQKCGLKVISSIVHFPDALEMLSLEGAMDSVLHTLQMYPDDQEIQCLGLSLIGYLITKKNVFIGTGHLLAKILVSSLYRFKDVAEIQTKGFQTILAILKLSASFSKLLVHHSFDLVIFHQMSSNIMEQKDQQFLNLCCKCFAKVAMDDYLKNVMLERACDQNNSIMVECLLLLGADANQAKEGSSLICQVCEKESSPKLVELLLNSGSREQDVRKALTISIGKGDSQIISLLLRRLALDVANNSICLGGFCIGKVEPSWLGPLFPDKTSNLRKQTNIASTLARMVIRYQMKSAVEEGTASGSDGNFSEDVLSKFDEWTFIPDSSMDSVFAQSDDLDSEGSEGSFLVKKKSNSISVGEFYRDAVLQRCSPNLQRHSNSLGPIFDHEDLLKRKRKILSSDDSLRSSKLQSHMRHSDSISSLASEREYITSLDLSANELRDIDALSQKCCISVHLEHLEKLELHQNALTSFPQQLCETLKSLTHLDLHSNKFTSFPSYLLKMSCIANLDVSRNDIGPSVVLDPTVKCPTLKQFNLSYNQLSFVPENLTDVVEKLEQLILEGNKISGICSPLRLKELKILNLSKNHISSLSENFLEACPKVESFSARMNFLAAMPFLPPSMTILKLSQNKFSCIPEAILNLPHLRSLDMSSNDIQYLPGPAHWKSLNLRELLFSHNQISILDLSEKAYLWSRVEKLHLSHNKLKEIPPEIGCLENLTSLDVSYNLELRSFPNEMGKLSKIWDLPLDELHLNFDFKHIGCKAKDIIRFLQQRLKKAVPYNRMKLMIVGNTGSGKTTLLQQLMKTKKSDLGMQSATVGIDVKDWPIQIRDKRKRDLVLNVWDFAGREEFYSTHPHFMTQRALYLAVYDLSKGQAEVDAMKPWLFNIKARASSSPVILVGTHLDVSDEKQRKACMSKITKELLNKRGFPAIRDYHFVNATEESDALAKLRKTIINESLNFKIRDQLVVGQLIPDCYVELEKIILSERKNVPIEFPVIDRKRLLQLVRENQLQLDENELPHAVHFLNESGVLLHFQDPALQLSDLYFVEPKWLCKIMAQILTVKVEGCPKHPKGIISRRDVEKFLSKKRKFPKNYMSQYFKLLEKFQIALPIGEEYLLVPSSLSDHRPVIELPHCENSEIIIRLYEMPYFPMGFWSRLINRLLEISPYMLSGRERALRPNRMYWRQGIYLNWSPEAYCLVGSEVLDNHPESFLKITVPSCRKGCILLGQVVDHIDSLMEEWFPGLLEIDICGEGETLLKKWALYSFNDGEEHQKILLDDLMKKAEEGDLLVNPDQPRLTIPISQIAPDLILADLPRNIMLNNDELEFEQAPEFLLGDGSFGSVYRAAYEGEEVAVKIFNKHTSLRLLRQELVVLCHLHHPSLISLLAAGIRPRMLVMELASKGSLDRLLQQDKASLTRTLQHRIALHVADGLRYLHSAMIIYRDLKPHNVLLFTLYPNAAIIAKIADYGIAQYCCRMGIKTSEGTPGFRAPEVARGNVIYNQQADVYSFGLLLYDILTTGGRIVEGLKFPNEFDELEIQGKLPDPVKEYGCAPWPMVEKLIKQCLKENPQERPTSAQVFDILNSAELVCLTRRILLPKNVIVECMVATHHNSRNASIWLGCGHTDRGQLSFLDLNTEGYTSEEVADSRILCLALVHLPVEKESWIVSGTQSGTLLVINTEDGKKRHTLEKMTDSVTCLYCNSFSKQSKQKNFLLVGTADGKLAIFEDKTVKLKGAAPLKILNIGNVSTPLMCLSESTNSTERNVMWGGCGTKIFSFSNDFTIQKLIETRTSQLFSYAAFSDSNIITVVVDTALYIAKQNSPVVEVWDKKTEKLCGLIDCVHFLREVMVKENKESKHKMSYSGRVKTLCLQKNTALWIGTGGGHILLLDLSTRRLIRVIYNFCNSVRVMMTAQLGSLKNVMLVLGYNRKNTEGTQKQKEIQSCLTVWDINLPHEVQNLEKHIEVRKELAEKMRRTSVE

Row | IC50 [1] | IC50 [2] | SMILES
1 | 100 to 1000 nM | ≤ 100 nM | CC1=C(C(=O)Nc2ccc3[nH]nc(C)c3c2)C(C)(C)n2nnnc2N1C [Example 60, 4,5,7,7-Tetramethyl-N-(3-methyl-2H-indazol-5-yl)-4,7-dihydrotetrazolo[1,5-a]pyrimidine-6-carboxamide]
2 | 100 to 1000 nM | ≤ 100 nM | CC1=C(C(=O)Nc2ccc3c(N)nccc3c2)[C@@H](C)n2nnnc2N1C [Example 42, (R)—N-(1-Aminoisoquinolin-6-yl)-4,5,7-trimethyl-4,7-dihydrotetrazolo[1,5-a]pyrimidine-6-carboxamide]
3 | 1000 to 10000 nM | 1000 to 10000 nM | CC1=C(C(=O)Nc2cc3c[nH]nc3cc2N)C(C)n2nnnc2N1C (stereo not drawn) [Example 25, N-(6-amino-2H-indazol-5-yl)-4,5,7-trimethyl-4,7-dihydrotetrazolo[1,5-a]pyrimidine-6-carboxamide]
4 | > 10000 nM | 1000 to 10000 nM | CC1=C(C(=O)Nc2ccc3[nH]c(=O)oc3c2)Cn2nnnc2N1C [Example 30, 4,5-dimethyl-N-(2-oxo-2,3-dihydrobenzo[d]oxazol-6-yl)-4,7-dihydrotetrazolo[1,5-a]pyrimidine-6-carboxamide]
5 | > 10000 nM | > 10000 nM | COC(=O)c1c(NC(=O)C2=C(C)N(C)c3nnnn3C2)ccc2n[nH]cc12 [Example 61, Methyl 5-(4,5-dimethyl-4,7-dihydrotetrazolo[1,5-a]pyrimidine-6-carboxamido)-2H-indazole-4-carboxylate]

The remaining lines, values behind:

Row | SMILES | IC50 [1] | IC50 [2]
6 | CC1=C(C(=O)Nc2cc3cn[nH]c3cn2)C(C)n2nnnc2N1C (racemic) [Example 23, 4,5,7-trimethyl-N-(1H-pyrazolo[3,4-c]pyridin-5-yl)-4,7-dihydrotetrazolo[1,5-a]pyrimidine-6-carboxamide] | 100 to 1000 nM | ≤ 100 nM
7 | CC1=C(C(=O)Nc2ccc3[nH]ncc3c2)C(C)n2nnnc2N1C (single isomer, unassigned) [Example 2b] | 1000 to 10000 nM | 100 to 1000 nM
8 | CC1=C(C(=O)Nc2ccc3[nH]nc(-c4ccc(S(N)(=O)=O)cc4)c3c2)Cn2nnnc2N1C [Example 11, 4,5-Dimethyl-N-(3-(4-sulfamoylphenyl)-1H-indazol-5-yl)-4,7-dihydrotetrazolo[1,5-a]pyrimidine-6-carboxamide] | ≤ 100 nM | ≤ 100 nM
9 | CC1=C(C(=O)Nc2ccc3[nH]nc(-c4ccnc(N5CCOCC5)c4)c3c2)Cn2nnnc2N1C [Example 7, 4,5-Dimethyl-N-(3-(2-morpholinopyridin-4-yl)-1H-indazol-5-yl)-4,7-dihydrotetrazolo[1,5-a]pyrimidine-6-carboxamide] | ≤ 100 nM | ≤ 100 nM
10 | CC1=C(C(=O)Nc2ccc3[nH]ncc3c2)C(C)n2nnnc2N1C (single isomer, unassigned) [Example 2a] | ≤ 100 nM | ≤ 100 nM
11 | CC1=C(C(=S)Nc2ccc3[nH]ncc3c2)Cn2nnnc2N1C [Example 15, N-(1H-indazol-5-yl)-4,5-dimethyl-4,7-dihydrotetrazolo[1,5-a]pyrimidine-6-carbothioamide] | 100 to 1000 nM | ≤ 100 nM
12 | CC1=C(C(=O)Nc2cc3c[nH]nc3cc2F)Cn2nnnc2N1C [Example 19, N-(6-fluoro-2H-indazol-5-yl)-4,5-dimethyl-4,7-dihydrotetrazolo[1,5-a]pyrimidine-6-carboxamide] | 100 to 1000 nM | 100 to 1000 nM
